Test results taken from ChEMBL document CHEMBL1201862, “PubChem BioAssay data set” (2004).
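Where inhibition never reached the appropriate level, the endpoint shown equals the highest concentration tested. Otherwise, values were interpolated linearly from a five-concentration, 48-hour dose response in 96-well plates. Here, GI50 denotes the concentration required for 50% inhibition of growth.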 Active and inactive are the calls of the source. Rule as the data show it: active = GI50 up to about 1.1 µM and inactive = higher.

Assays:
Assay in all cases: inhibition of tumour cell growth, NCI panel, 48 h
[1] = system: SN12C
[2] = system: RPMI-8226
[3] = system: SK-OV-3
[4] = system: SF-268
[5] = system: IGROV-1
[6] = system: SK-MEL-2
[7] = system: RXF 393
[8] = system: SNB-19
[9] = system: SW-620
[10] = system: NCI-H522
[11] = system: HCT-116
[12] = system: MOLT-4
[13] = system: SK-MEL-28
[14] = system: UO-31
[15] = system: MDA-N
[16] = system: A498
[17] = system: U-251
[18] = system: NCI-H226
[19] = system: HL-60

Row | SMILES | GI50 [1] | GI50 [2] | GI50 [3] | GI50 [4] | GI50 [5] | GI50 [6] | GI50 [7] | GI50 [8] | GI50 [9] | GI50 [10] | GI50 [11] | GI50 [12] | GI50 [13] | GI50 [14] | GI50 [15] | GI50 [16] | GI50 [17] | GI50 [18] | GI50 [19]
1 | CC(C)(Cl)C(Br)CCC(C)(Br)C(Br)CBr (stereo not drawn) | 20 µM (inactive) | 19.2 µM (inactive) | 29.1 µM (inactive) | 16.9 µM (inactive) | 19.6 µM (inactive) | 14.7 µM (inactive) | 22.1 µM (inactive) | 23.1 µM (inactive) | 16.3 µM (inactive) | 13 µM (inactive) | 16 µM (inactive) | 19.6 µM (inactive) | 17.2 µM (inactive) | 19 µM (inactive) | 19.5 µM (inactive) | 19.3 µM (inactive) | 16.5 µM (inactive) | 18.8 µM (inactive) | 17 µM (inactive)
2 | CC(=O)OCC1OC(SC2OC(COC(C)=O)C(OC(C)=O)C(OC(C)=O)C2OC(C)=O)C(OC(C)=O)C(OC(C)=O)C1OC(C)=O (stereo not drawn) | > 100 µM (inactive) | > 100 µM (inactive) | > 100 µM (inactive) | > 100 µM (inactive) | > 100 µM (inactive) | – | > 100 µM (inactive) | > 100 µM (inactive) | > 100 µM (inactive) | – | > 100 µM (inactive) | > 100 µM (inactive) | > 100 µM (inactive) | > 100 µM (inactive) | > 100 µM (inactive) | 54.1 µM (inactive) | > 100 µM (inactive) | > 100 µM (inactive) | > 100 µM (inactive)
3 | N#CC1=C(N)OC2=C(CCCc3ccc([N+](=O)[O-])cc32)C1c1ccc(Cl)cc1 (stereo not drawn) | 2.74 µM (inactive) | 4.33 µM (inactive) | 13.7 µM (inactive) | 8.43 µM (inactive) | 8.71 µM (inactive) | 13.4 µM (inactive) | 4.68 µM (inactive) | 32.9 µM (inactive) | 9.35 µM (inactive) | 6.41 µM (inactive) | 3.3 µM (inactive) | 3.21 µM (inactive) | 25.8 µM (inactive) | 3.3 µM (inactive) | 6.7 µM (inactive) | 5.73 µM (inactive) | 4.57 µM (inactive) | 17 µM (inactive) | 1.89 µM (inactive)
4 | O=C1Oc2ccccc2C1C/C(=N\Nc1ccccc1)c1ccccc1O (stereo not drawn) | 42 µM (inactive) | 45.2 µM (inactive) | 62.1 µM (inactive) | 25.7 µM (inactive) | 17 µM (inactive) | 35.5 µM (inactive) | 53.7 µM (inactive) | > 100 µM (inactive) | 29.9 µM (inactive) | 38.2 µM (inactive) | 28.4 µM (inactive) | 29.9 µM (inactive) | 33.7 µM (inactive) | 23.3 µM (inactive) | 44.5 µM (inactive) | 33.7 µM (inactive) | 40.3 µM (inactive) | 28.8 µM (inactive) | 34.2 µM (inactive)
5 | N#Cc1nc(C#N)n(C(=O)c2ccccc2)c1NC(=O)c1ccccc1 | > 100 µM (inactive) | > 100 µM (inactive) | > 100 µM (inactive) | > 100 µM (inactive) | > 100 µM (inactive) | > 100 µM (inactive) | > 100 µM (inactive) | > 100 µM (inactive) | > 100 µM (inactive) | > 100 µM (inactive) | > 100 µM (inactive) | > 100 µM (inactive) | > 100 µM (inactive) | > 100 µM (inactive) | > 100 µM (inactive) | > 100 µM (inactive) | > 100 µM (inactive) | > 100 µM (inactive) | > 100 µM (inactive)
6 | O=c1[nH]c(=O)n(COCc2ccccc2)c2ccc([N+](=O)[O-])cc12 | > 100 µM (inactive) | – | > 100 µM (inactive) | – | > 100 µM (inactive) | > 100 µM (inactive) | > 100 µM (inactive) | – | > 100 µM (inactive) | – | > 100 µM (inactive) | > 100 µM (inactive) | > 100 µM (inactive) | > 100 µM (inactive) | > 100 µM (inactive) | > 100 µM (inactive) | > 100 µM (inactive) | > 100 µM (inactive) | > 100 µM (inactive)
7 | CC(=O)O[C@H]1C(=O)[C@@]2(C)[C@H]([C@H](OC(=O)c3ccccc3)[C@]3(O)C[C@H](OC(=O)[C@H](O)[C@@H](NC(=O)c4cccc(N=[N+]=[N-])c4)c4ccccc4)C(C)=C1C3(C)C)[C@]1(OC(C)=O)CO[C@@H]1C[C@@H]2O | 0.0164 µM (active) | < 0.0025 µM (active) | 0.0122 µM (active) | 0.0289 µM (active) | 0.00679 µM (active) | – | 0.045 µM (active) | 0.0129 µM (active) | 0.00621 µM (active) | 0.00307 µM (active) | < 0.0025 µM (active) | 0.00453 µM (active) | 0.425 µM (active) | 1.33 µM (inactive) | < 0.0025 µM (active) | 0.0408 µM (active) | 0.00629 µM (active) | 0.00855 µM (active) | < 0.0025 µM (active)
8 | O=C(CN1CCOCC1)NC1=Nc2ncccc2C(=O)NN1 | > 10 µM (inactive) | > 10 µM (inactive) | > 10 µM (inactive) | > 10 µM (inactive) | > 10 µM (inactive) | > 10 µM (inactive) | > 10 µM (inactive) | > 10 µM (inactive) | > 10 µM (inactive) | – | > 10 µM (inactive) | > 10 µM (inactive) | > 10 µM (inactive) | > 10 µM (inactive) | > 10 µM (inactive) | > 10 µM (inactive) | > 10 µM (inactive) | > 10 µM (inactive) | > 10 µM (inactive)
9 | O=C1Nc2ccccc2C(=O)/C1=C/NC(=S)NC1CCCCC1 | > 100 µM (inactive) | > 100 µM (inactive) | > 100 µM (inactive) | > 100 µM (inactive) | > 100 µM (inactive) | > 100 µM (inactive) | > 100 µM (inactive) | > 100 µM (inactive) | > 100 µM (inactive) | > 100 µM (inactive) | > 100 µM (inactive) | > 100 µM (inactive) | – | > 100 µM (inactive) | > 100 µM (inactive) | > 100 µM (inactive) | > 100 µM (inactive) | > 100 µM (inactive) | > 100 µM (inactive)
10 | C[N+](C)([O-])CCC=C1c2ccccc2CCc2ccccc21 | 24.2 µM (inactive) | 11.5 µM (inactive) | 37.8 µM (inactive) | 21.5 µM (inactive) | 17.1 µM (inactive) | 18.5 µM (inactive) | 20.5 µM (inactive) | 35.6 µM (inactive) | 21.8 µM (inactive) | 16.6 µM (inactive) | 29.6 µM (inactive) | 17.2 µM (inactive) | 33.5 µM (inactive) | – | 19.5 µM (inactive) | 21.5 µM (inactive) | 18.2 µM (inactive) | 31.4 µM (inactive) | 12.6 µM (inactive)
11 | CC(=O)CC12NC(=O)N(C)N=C1N(C)C(=O)N(C)C2=O (stereo not drawn) | 33.1 µM (inactive) | 58.1 µM (inactive) | > 100 µM (inactive) | 78.2 µM (inactive) | > 100 µM (inactive) | – | 68.1 µM (inactive) | > 10 µM (inactive) | 33.9 µM (inactive) | 37.7 µM (inactive) | 35.7 µM (inactive) | 44.8 µM (inactive) | 57.3 µM (inactive) | > 100 µM (inactive) | 22.3 µM (inactive) | 31.9 µM (inactive) | 34.4 µM (inactive) | > 100 µM (inactive) | 25.9 µM (inactive)
